Laboratory results taken from PubChem BioAssay AID1996.
Converted amounts (≈) assume the structure as drawn.

Conditions: buffer; pH 7.4; 200.0 µM

SMILES	solubility kinetic [µg/mL]
CC(C)c1ccc(NC(=O)CNCC(c2ccccc2)N(C)C)cc1 (stereo not given)	32.9 (≈ 96.9 µM)
Cc1ccc2ccc(C)[n+](CCCS(=O)(=O)[O-])c2c1	12.4 (≈ 44.4 µM)
CCn1c(SCC(=O)NC2CC2)nnc1-c1ccccn1	> 45.5
CC(=O)c1cccc(NC(=S)N2c3ccccc3CC2C)c1 (stereo not given)	1.4 (≈ 4.51 µM)
Cc1cccc(C(C)C)c1NS(=O)(=O)c1cn(C)nc1C	> 46.1
COc1ccc(NS(=O)(=O)c2cn(C)cn2)cc1	> 40.1
COc1ccc(/C=C/C2=Nc3ccccc3NC(C)(C)C2)cc1OC	43 (≈ 128 µM)
CCN1CCc2c(OCC(=O)N3CCCc4ccccc43)cccc2C1=O	> 54.7
NS(=O)(=O)c1ccc(CCNc2ccc(C(F)(F)F)cn2)cc1	48.1 (≈ 139 µM)
CC(=O)CCc1oc2c([N+](=O)[O-])cccc2c1-c1ccc(C)o1	2.8 (≈ 8.94 µM)
CC(C)c1ccccc1NC(=S)NCC1(N(C)C)CCCCC1	45.9 (≈ 138 µM)
Cc1ccc(S(=O)(=O)N2CCCCC2)cc1NS(=O)(=O)c1ccccc1F	> 61.9
O=C(COC(=O)C12CC3CC(CC(C3)C1)C2)NCc1ccccc1	10.2 (≈ 31.2 µM)
N#Cc1ccc(OCC(=O)NCCCn2ccnc2)cc1	> 42.6
O=C(CN1CCCC1)NCC(=O)Nc1ccc(F)cc1	> 41.9
CCn1c(=O)c2sccc2n(Cc2ccccc2)c1=O	8.9 (≈ 31.1 µM)
Br.COC(=O)c1ccc(CN2CCSC2=N)cc1	49.6
O=c1cc(/N=C/c2coc3cc(Br)ccc3c2=O)[nH]c(=S)[nH]1	3 (≈ 7.93 µM)
CC(C)(C)c1cc(CN(CCO)CCO)c(O)c(C(C)(C)C)c1	38.7 (≈ 120 µM)
CSc1ccccc1NC(=O)c1ccc([N+](=O)[O-])cc1	15.9 (≈ 55.1 µM)
CCOC(=O)c1c(C)[nH]c(C(=O)OCc2ccc(C)cc2)c1C	3.2 (≈ 10.1 µM)
CC(C)Sc1nc2ncnc(N)c2[nH]1	> 31.4
CN(Cc1ccccc1)C(=S)NC(=O)c1cccs1	> 43.6
NC1=NC(=Nc2ccc(S(N)(=O)=O)cc2)c2ccccc21	> 45.1

SMILES	solubility kinetic [µg/mL]
O=C1CCN(S(=O)(=O)c2ccc(Cl)cc2)CC1	> 41.1
CCOc1ccc(Cn2c(=O)oc3ccccc32)cc1	< 0.6
O=C(Cc1ccc(Cl)cc1)NCC(=O)N1CCCCCC1	> 46.3
Cc1ccn2cc(CNS(=O)(=O)c3cccs3)nc2c1	> 46.1
O=C(Nc1cccc(F)c1)Nc1ccc2c(c1)OCO2	4.4 (≈ 16 µM)
O=C(NC(=S)Nc1cc([N+](=O)[O-])ccc1O)C1CC1	> 42.2
Cc1ccccc1NC(=O)c1ccno1	23.5 (≈ 116 µM)
CCOc1ccccc1C(=O)NC(C(=O)NCCc1ccccn1)C(C)C (stereo not given)	> 55.4
Cc1ccccc1NC(=S)NC(=O)C1CCCCC1	1 (≈ 3.62 µM)
O=C(NCc1cccnc1)C1CC(c2cccc(Br)c2)=NO1 (stereo not given)	52.5 (≈ 146 µM)
CSc1ccc(CNCC(O)c2ccccc2)cc1.Cl (stereo not given)	> 46.5
O=c1cc(Cl)c2ccccc2n1-c1ccccc1	> 38.4
O=[N+]([O-])c1cccc(-c2noc(-c3ccco3)n2)c1	1.7 (≈ 6.61 µM)
CCNC(=O)COC(=O)c1cccc(Br)c1	40.8 (≈ 143 µM)
CCOc1cc(S(=O)(=O)NCC2CCCO2)ccc1F (stereo not given)	> 45.5
CC(Sc1nnc(C(F)(F)F)n1C)C(=O)Nc1ccc(N2CCOCC2)cc1 (stereo not given)	> 62.3
CSc1ccccc1NC(=O)CN1c2ccccc2CC1C (stereo not given)	11.9 (≈ 38.1 µM)
CC(C)(C)c1csc(NC(=O)CCc2ccccc2)n1	2.1 (≈ 7.28 µM)
COc1ccc(OC)c(/C=C2\NC(=O)NC2=O)c1	9.5 (≈ 38.3 µM)
O=C(Nc1ccc(C(=O)OC2CCCCC2)cc1)c1ccncc1	2.8 (≈ 8.63 µM)
COc1ccc(-c2nc3n(c(=O)c2C#N)CCS3)cc1OC	11.9 (≈ 37.7 µM)
COc1ccc(Cl)cc1NC(=O)CN(C)C(=O)c1cccc2cccnc12	48.5 (≈ 126 µM)
COc1ccc2nc(N(Cc3ccccc3)C(=O)CCNC(C)=O)sc2c1	3.3 (≈ 8.61 µM)
O=C(COC(=O)CC1CCCC1)Nc1ccc(OC(F)F)cc1	42.1 (≈ 129 µM)

SMILES	solubility kinetic [µg/mL]
CC(Cc1ccccc1)C(=O)Nc1ccc(Br)cc1 (stereo not given)	3.2 (≈ 10.1 µM)
COc1ccccc1Oc1ccnc2cc(Cl)ccc12	9.1 (≈ 31.8 µM)
O=C(c1ccc(Cl)cc1)N1CCN(c2ncccn2)CC1	> 45.4
Cc1ccc(C(=O)Nc2ccccc2N2CCCC2)cc1	31.4 (≈ 112 µM)
Cc1ccccc1CN(C)C(C)C(=O)NCc1ccccc1 (stereo not given)	37.1 (≈ 125 µM)
N#Cc1c(Nc2ccccc2)c(C=O)c[nH]c1=O	> 35.9
O=C1NC(=O)/C(=C\c2ccc(O)cc2O)S1	> 35.6
O=C(NCCN1CCN(c2ccccc2)CC1)Nc1ccc(Cl)cc1	3.7 (≈ 10.3 µM)
CCCOC(=O)CC1C(=O)NCCN1C(=O)OC(C)(C)C (stereo not given)	> 45.1
COc1nc(N(C)C)nc(N(C#N)CCOC(C)=O)n1	> 42
CN(C)C(=O)c1cc([N+](=O)[O-])ccc1O	> 31.5
CC(=O)c1c(COC(=O)c2ccc(F)cc2)nc2ccccc2[n+]1[O-]	2.4 (≈ 7.05 µM)
COc1ccc(NC(=O)C2CCCN(S(C)(=O)=O)C2)cc1 (stereo not given)	34.9 (≈ 112 µM)
Cc1c(C(=O)O)c(C(=O)O)c2n1CCS2	> 34.1
COc1cccc2cc(C(=O)NCCN3CCOCC3)oc12	> 45.7
CSc1ncccc1C(=O)N(C)CC(=O)Nc1cccc(F)c1	> 50
Cl.c1ccc2c(N3CCOCC3)c3c(nc2c1)CCC3	> 43.6
COCC(=O)Nc1cc(Cl)ccc1C	> 32
CCCCc1nc2ccc(S(=O)(=O)O)cc2[nH]1	31.4 (≈ 123 µM)
CN1C2=CC=CC=CC2=[N+](C)C12C([N+](=O)[O-])=CC(=[N+]([O-])[O-])C=C2[N+](=O)[O-] (stereo not given)	0.7 (≈ 1.95 µM)
O=C(Nc1cccc(C(=O)Nc2ccc(F)cc2F)c1)c1ccccc1	0.4 (≈ 1.14 µM)
OCCN(Cc1ccccc1)c1ncnc2sccc12	> 42.8
O=C(NCCC(=O)N1CCCCC1)c1ccc(Br)cc1	> 50.9
CCOP(=O)(OCC)C(NC(=O)Nc1ccc(C)cc1)C(N)=O (stereo not given)	> 51.5

SMILES	solubility kinetic [µg/mL]
CCN(Cc1ccccc1)C(=O)CSc1n[nH]c(N)n1	> 43.7
O=c1[nH]c(=S)[nH]c(O)c1/C=C1/C=c2ccccc2=N1	1.8 (≈ 6.63 µM)
Cc1sc(NC(=O)CN2CCOCC2)c(C#N)c1C	> 41.9
COC(=O)CCN(C(=O)c1ccc([N+](=O)[O-])cc1)c1ccccn1	> 49.4
O=C(NCCC1=CCCCC1)C1CCN(C(=O)Cc2ccccc2)CC1	> 53.2
COc1cc2ccccc2cc1C(=O)N1CCCCC1	> 40.4
Cc1oc(C(C)(C)C)c(CN2CCOCC2)c1C(=O)O.Cl	> 47.7
CCC(=O)N(CCC(c1ccco1)C(C)C)Cc1ccccc1 (stereo not given)	23.7 (≈ 75.6 µM)
O=C(c1cn(Cc2ccccc2F)c2ncccc12)C(F)(F)F	2.8 (≈ 8.69 µM)
COC(=O)/C(C#N)=C/c1c(-c2ccccc2)nc2n1CCS2	7.5 (≈ 24.1 µM)
CC1(NC(=O)Nc2cccc3ccccc23)CCS(=O)(=O)C1 (stereo not given)	43 (≈ 135 µM)
COc1ccc(NC(=O)COC(=O)C2CC2)c(OC)c1	> 41.9
COc1ccc(C(C)NC(=S)NCc2ccc(F)cc2)cc1 (stereo not given)	4.4 (≈ 13.8 µM)
Nc1c(Cl)cc(Cl)cc1C(=O)OCC(=O)N1CCOCC1	> 50
O=C(COc1ccc(Cl)cc1)Nc1ccc2oc(=O)ccc2c1	< 0.7
N#Cc1cccc(C#N)c1Oc1ccc(S(=O)(=O)Nc2ccccc2)cc1	18.4 (≈ 49 µM)
O=C(CN1CCN(Cc2ccccc2)CC1)Nc1cccc(Cl)c1	> 51.6
Cc1cccc(C)c1NC(=O)COC(=O)C1CC1	32.7 (≈ 132 µM)
COc1ccc(OC)c(/C=N/OC(=O)Nc2ccc(Cl)cc2)c1	8.3 (≈ 24.8 µM)
CN(c1ccccc1)S(=O)(=O)c1cccc(C(=O)OCC(=O)NCc2ccccc2)c1	11.1 (≈ 25.3 µM)
O=C(CSc1ccccc1)NCc1ccccc1	22.6 (≈ 87.8 µM)
CCOC(=O)c1oc2ccccc2c1NC(=O)c1ccco1	1.5 (≈ 5.01 µM)
CC1=NOC(=O)/C1=C/c1ccc(O)c(Cl)c1	> 35.6
NC(=O)c1ccc[n+](CC(=O)c2ccc(F)cc2)c1.[Br-]	> 50.9

SMILES	solubility kinetic [µg/mL]
Cc1ccc(C(=O)NCN2CCN(c3ccccc3)CC2)cc1	> 46.4
O=C(c1ccc(F)cc1Cl)N1CCC2(CC1)OCCO2	> 45
COc1ccc(CC(=O)NCc2ccc(F)cc2)cc1S(=O)(=O)N1CCOCC1	> 63.4
Cc1cccc(C)c1NC(=O)[C@@]1(CC(=O)O)CC(/C=C/c2ccccc2)=NO1	> 56.8
O=C1c2cccc3cccc(c23)C(=O)N1c1cccc(O)c1	1.3 (≈ 4.49 µM)
O=C1C2C3CCC(CC3)C2C(=O)N1c1ccccc1 (stereo not given)	11.6 (≈ 45.4 µM)
CN(c1ccc(F)cc1)S(=O)(=O)c1ccc(Cl)c(C(=O)NCc2ccco2)c1	34.9 (≈ 82.5 µM)
O=C(/C=C/c1ccco1)Nc1scc(-c2ccccc2)c1C(=O)O	48.9 (≈ 144 µM)
CC1(c2ccc(NC(=O)c3ccccc3F)cc2)CC1(Cl)Cl (stereo not given)	< 0.7
Cc1cccc(NC(=O)NC2CCCc3ccccc32)c1 (stereo not given)	0.7 (≈ 2.5 µM)
Cc1ccc(NC(=O)Cn2cc(C(=O)C3CC3)c3ccccc32)cc1	< 0.4
CCOc1ccc(C(=O)N2CCN(c3ncccn3)CC2)cc1	42.3 (≈ 135 µM)
Cc1cccc(NS(=O)(=O)c2ccc(C(C)(C)C)cc2)n1	42.7 (≈ 140 µM)
COC(=O)C(Cc1ccccc1)NC(=O)CCNC(=O)c1ccco1 (stereo not given)	> 51.7
Cc1nc(SCC(=O)NC2CCS(=O)(=O)C2)c2c3c(sc2n1)CCC3 (stereo not given)	7.3 (≈ 18.4 µM)
Cc1ccccc1-c1cn(-c2ccccc2)c(=S)[nH]1	6.2 (≈ 23.3 µM)
CC1CCCC(C)N1C(=O)COC(=O)COc1ccc(C#N)cc1 (stereo not given)	> 49.6
COc1ccccc1OCCC(=O)Nc1ccc2c(c1)OCO2	> 47.3
CC(Oc1ccccc1)C(=O)N1CCN=C1SCc1ccccc1F (stereo not given)	11.4 (≈ 31.8 µM)
CCOC(=O)c1cc2c(n(-c3ccc(Cl)cc3)c1=O)CCCC2=O	> 51.9
N#Cc1c(N2CCOCC2)nsc1-c1ccc(C(F)(F)F)cc1	< 0.2
COc1ccc2cc(C(C)C(=O)N3CCC(C(N)=O)CC3)ccc2c1 (stereo not given)	> 51.1
O=C(/C=C/c1ccc(Cl)c(Cl)c1)Nc1cccnc1	0.6 (≈ 2.05 µM)
CN1C(C(=O)c2ccccc2)=C(N)c2ccccc2S1(=O)=O	40.9 (≈ 130 µM)
